Experimental data as given in ChEMBL document CHEMBL4507266, “Data for DCP probe BAY-784” (2021).

Key:
[1] = molecular target: Serine/threonine-protein kinase WNK3 (Homo sapiens) (UniProt Q9BYP7); conditions: Compound concentration 1000.0 nM
[2] = molecular target: Tyrosine-protein kinase JAK3 (Homo sapiens) (UniProt P52333); conditions: Compound concentration 1000.0 nM
[3] = molecular target: Tyrosine-protein kinase Fgr (Homo sapiens) (UniProt P09769); conditions: Compound concentration 1000.0 nM
[4] = molecular target: Phosphatidylinositol 5-phosphate 4-kinase type-2 gamma (Homo sapiens) (UniProt Q8TBX8); conditions: Compound concentration 1000.0 nM
[5] = molecular target: Cyclin-dependent kinase-like 3 (Homo sapiens) (UniProt Q8IVW4); conditions: Compound concentration 1000.0 nM
[6] = molecular target: Ephrin type-A receptor 5 (Homo sapiens) (UniProt P54756); conditions: Compound concentration 1000.0 nM
[7] = molecular target: Ephrin type-A receptor 6 (Homo sapiens) (UniProt Q9UF33); conditions: Compound concentration 1000.0 nM
[8] = molecular target: Dual specificity mitogen-activated protein kinase kinase 7 (Homo sapiens) (UniProt O14733); conditions: Compound concentration 1000.0 nM
[9] = molecular target: Histamine H2 receptor (Homo sapiens) (UniProt P25021); conditions: Compound concentration 10.0 uM
[10] = molecular target: Dual specificity protein kinase CLK1 (Homo sapiens) (UniProt P49759); conditions: Compound concentration 1000.0 nM
[11] = molecular target: RAC-beta serine/threonine-protein kinase (Homo sapiens) (UniProt P31751); conditions: Compound concentration 1000.0 nM
[12] = molecular target: Serine/threonine-protein kinase TNNI3K (Homo sapiens) (UniProt Q59H18); conditions: Compound concentration 1000.0 nM
[13] = molecular target: T1, Alpha-2A adrenergic receptor (Homo sapiens) (UniProt P08913); conditions: Compound concentration 10.0 uM
T1 sequence (whole entry): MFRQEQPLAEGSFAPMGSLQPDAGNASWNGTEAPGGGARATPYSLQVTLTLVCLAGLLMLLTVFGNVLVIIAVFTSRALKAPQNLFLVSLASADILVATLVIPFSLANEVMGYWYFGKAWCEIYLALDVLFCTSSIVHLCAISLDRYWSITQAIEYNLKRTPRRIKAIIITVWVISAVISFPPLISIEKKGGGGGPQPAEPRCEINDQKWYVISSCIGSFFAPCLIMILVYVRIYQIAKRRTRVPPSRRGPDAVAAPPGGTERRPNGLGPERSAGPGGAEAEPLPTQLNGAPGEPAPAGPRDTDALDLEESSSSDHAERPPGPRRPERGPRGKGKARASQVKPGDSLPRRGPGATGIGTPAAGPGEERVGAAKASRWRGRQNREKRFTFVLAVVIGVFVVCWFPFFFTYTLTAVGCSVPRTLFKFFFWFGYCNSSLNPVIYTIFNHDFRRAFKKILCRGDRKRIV

[14] = molecular target: Interleukin-1 receptor-associated kinase 1 (Homo sapiens) (UniProt P51617); conditions: Compound concentration 1000.0 nM
[15] = molecular target: Casein kinase I isoform alpha-like (Homo sapiens) (UniProt Q8N752); conditions: Compound concentration 1000.0 nM
[16] = molecular target: Ribosomal protein S6 kinase alpha-1 (Homo sapiens) (UniProt Q15418); conditions: Compound concentration 1000.0 nM
[17] = molecular target: cAMP-dependent protein kinase catalytic subunit alpha (Homo sapiens) (UniProt P17612); conditions: Compound concentration 1000.0 nM
[18] = molecular target: Serine/threonine-protein kinase 24 (Homo sapiens) (UniProt Q9Y6E0); conditions: Compound concentration 1000.0 nM
[19] = molecular target: Cyclin-dependent kinase 14 (Homo sapiens) (UniProt O94921); conditions: Compound concentration 1000.0 nM
[20] = molecular target: Beta-adrenergic receptor kinase 1 (Homo sapiens) (UniProt P25098); conditions: Compound concentration 1000.0 nM
[21] = molecular target: 5'-AMP-activated protein kinase catalytic subunit alpha-2 (Homo sapiens) (UniProt P54646); conditions: Compound concentration 1000.0 nM
[22] = molecular target: Dual specificity mitogen-activated protein kinase kinase 5 (Homo sapiens) (UniProt Q13163); conditions: Compound concentration 1000.0 nM
[23] = test system: Receptor-type tyrosine-protein kinase FLT3 (Homo sapiens), P36888 [K663Q]; conditions: Compound concentration 1000.0 nM
[24] = test system: Epidermal growth factor receptor (Homo sapiens), P00533 [L858R]; conditions: Compound concentration 1000.0 nM
[25] = molecular target: Death-associated protein kinase 3 (Homo sapiens) (UniProt O43293); conditions: Compound concentration 1000.0 nM
[26] = molecular target: Inhibitor of nuclear factor kappa-B kinase subunit beta (Homo sapiens) (UniProt O14920); conditions: Compound concentration 1000.0 nM
[27] = molecular target: T2, 5-hydroxytryptamine receptor 3A (Homo sapiens) (UniProt P46098); conditions: Compound concentration 10.0 uM
T2 sequence (whole entry): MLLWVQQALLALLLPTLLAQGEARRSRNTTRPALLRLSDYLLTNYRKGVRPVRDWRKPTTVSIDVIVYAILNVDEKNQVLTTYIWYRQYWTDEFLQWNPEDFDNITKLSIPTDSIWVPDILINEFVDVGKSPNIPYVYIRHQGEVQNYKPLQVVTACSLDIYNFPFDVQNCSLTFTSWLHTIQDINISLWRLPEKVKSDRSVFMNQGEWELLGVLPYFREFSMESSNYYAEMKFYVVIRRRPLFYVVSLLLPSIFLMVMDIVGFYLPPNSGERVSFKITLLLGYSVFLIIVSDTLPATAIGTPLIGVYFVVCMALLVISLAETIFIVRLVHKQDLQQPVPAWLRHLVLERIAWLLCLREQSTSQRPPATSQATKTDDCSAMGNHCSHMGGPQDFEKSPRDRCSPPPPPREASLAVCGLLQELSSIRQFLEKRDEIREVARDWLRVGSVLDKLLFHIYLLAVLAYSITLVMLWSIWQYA

[28] = molecular target: Proto-oncogene tyrosine-protein kinase Src (Homo sapiens) (UniProt P12931); conditions: Compound concentration 1000.0 nM
[29] = test system: Receptor-type tyrosine-protein kinase FLT3 (Homo sapiens), P36888 [R834Q]; conditions: Compound concentration 1000.0 nM
[30] = molecular target: Mitogen-activated protein kinase kinase kinase 14 (Homo sapiens) (UniProt Q99558); conditions: Compound concentration 1000.0 nM
[31] = molecular target: Serine/threonine-protein kinase tousled-like 1 (Homo sapiens) (UniProt Q9UKI8); conditions: Compound concentration 1000.0 nM
[32] = molecular target: Muscle, skeletal receptor tyrosine-protein kinase (Homo sapiens) (UniProt O15146); conditions: Compound concentration 1000.0 nM

5'-AMP-activated protein kinase catalytic subunit alpha-2 (Homo sapiens), sequence (P54646 whole entry, looked up): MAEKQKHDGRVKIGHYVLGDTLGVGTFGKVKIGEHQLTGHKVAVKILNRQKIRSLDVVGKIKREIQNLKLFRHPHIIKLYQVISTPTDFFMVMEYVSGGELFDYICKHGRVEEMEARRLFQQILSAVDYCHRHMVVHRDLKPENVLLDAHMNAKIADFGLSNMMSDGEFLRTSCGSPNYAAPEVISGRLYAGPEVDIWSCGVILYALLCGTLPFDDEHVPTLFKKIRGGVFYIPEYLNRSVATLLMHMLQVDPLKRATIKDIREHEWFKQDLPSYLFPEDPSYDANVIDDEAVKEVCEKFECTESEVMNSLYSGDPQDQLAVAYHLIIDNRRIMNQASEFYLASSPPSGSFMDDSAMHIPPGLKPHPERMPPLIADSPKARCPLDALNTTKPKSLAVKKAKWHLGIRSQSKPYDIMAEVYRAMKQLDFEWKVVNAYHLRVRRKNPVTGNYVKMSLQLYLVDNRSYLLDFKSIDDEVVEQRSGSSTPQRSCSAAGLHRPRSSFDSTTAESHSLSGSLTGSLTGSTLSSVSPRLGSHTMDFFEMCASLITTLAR
Ephrin type-A receptor 5 (Homo sapiens), sequence (P54756 whole entry): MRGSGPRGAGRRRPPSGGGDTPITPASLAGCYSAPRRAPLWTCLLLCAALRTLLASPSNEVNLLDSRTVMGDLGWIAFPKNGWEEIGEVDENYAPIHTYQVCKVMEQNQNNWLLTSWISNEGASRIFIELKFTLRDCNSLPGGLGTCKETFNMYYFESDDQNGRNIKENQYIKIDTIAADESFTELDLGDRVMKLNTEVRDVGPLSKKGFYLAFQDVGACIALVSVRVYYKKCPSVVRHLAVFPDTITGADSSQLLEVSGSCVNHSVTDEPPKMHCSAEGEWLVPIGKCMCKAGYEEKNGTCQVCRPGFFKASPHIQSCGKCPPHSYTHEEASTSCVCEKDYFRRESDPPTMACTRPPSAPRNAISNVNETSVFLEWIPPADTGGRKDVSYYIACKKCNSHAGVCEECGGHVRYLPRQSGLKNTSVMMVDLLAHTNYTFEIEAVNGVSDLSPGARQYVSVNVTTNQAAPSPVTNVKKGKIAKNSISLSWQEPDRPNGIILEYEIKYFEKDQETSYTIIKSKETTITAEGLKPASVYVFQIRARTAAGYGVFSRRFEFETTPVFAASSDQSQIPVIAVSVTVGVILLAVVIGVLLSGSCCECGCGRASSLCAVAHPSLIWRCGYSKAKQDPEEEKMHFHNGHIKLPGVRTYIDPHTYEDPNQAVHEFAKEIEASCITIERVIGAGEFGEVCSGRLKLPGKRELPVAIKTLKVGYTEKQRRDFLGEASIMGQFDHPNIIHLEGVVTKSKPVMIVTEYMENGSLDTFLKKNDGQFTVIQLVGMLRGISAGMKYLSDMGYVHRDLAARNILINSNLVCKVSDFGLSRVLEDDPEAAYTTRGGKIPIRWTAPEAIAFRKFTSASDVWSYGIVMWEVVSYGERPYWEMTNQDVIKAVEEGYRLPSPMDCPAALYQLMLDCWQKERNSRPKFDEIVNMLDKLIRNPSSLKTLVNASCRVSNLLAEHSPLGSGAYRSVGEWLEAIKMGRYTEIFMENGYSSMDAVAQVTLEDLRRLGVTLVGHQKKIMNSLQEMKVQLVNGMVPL
Inhibitor of nuclear factor kappa-B kinase subunit beta (Homo sapiens), sequence (O14920 whole entry): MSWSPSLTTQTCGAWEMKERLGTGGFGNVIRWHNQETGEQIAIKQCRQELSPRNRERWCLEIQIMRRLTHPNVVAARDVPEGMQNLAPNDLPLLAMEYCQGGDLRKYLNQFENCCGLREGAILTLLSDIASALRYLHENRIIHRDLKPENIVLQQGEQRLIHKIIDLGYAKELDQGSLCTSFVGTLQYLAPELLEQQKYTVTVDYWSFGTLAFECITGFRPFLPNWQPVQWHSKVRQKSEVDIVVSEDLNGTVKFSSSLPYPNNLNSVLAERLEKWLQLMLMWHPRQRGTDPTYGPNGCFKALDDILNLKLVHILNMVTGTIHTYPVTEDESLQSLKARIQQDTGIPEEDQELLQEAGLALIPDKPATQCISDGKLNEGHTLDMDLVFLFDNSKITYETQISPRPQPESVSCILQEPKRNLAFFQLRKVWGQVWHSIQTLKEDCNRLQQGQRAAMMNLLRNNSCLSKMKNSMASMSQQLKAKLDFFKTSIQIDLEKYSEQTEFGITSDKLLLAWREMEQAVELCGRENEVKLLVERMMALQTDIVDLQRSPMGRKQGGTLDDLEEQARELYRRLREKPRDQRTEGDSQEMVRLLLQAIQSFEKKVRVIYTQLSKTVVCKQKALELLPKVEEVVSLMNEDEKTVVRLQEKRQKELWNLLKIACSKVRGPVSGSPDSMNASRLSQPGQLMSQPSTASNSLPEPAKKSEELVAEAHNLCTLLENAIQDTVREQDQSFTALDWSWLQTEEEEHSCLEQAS
Dual specificity protein kinase CLK1 (Homo sapiens), sequence (P49759 whole entry, looked up): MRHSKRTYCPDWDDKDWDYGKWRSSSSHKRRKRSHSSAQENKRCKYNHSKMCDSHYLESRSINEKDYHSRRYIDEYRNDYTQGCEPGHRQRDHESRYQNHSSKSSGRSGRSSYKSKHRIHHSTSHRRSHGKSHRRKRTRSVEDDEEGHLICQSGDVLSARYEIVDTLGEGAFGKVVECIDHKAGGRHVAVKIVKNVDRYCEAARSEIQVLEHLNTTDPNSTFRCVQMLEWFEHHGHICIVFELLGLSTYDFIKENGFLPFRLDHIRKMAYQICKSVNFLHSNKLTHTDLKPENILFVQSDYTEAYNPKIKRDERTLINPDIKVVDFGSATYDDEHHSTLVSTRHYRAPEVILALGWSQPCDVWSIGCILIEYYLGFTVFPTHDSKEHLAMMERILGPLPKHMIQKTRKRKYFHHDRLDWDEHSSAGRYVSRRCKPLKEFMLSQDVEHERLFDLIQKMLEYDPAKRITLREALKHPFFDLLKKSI
RAC-beta serine/threonine-protein kinase (Homo sapiens), sequence (P31751 whole entry): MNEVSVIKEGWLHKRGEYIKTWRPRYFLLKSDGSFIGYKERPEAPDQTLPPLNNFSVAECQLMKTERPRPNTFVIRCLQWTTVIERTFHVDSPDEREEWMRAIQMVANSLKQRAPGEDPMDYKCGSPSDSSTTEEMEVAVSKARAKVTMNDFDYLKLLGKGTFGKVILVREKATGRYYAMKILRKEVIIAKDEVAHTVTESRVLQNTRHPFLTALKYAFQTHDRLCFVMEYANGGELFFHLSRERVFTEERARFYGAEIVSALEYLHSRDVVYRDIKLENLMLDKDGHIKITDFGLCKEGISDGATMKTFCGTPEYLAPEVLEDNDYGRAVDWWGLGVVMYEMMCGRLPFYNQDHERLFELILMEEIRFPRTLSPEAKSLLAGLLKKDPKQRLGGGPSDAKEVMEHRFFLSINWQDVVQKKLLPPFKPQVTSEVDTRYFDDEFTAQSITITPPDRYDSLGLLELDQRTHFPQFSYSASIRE
Proto-oncogene tyrosine-protein kinase Src (Homo sapiens), sequence (P12931 2-536 limits assumed): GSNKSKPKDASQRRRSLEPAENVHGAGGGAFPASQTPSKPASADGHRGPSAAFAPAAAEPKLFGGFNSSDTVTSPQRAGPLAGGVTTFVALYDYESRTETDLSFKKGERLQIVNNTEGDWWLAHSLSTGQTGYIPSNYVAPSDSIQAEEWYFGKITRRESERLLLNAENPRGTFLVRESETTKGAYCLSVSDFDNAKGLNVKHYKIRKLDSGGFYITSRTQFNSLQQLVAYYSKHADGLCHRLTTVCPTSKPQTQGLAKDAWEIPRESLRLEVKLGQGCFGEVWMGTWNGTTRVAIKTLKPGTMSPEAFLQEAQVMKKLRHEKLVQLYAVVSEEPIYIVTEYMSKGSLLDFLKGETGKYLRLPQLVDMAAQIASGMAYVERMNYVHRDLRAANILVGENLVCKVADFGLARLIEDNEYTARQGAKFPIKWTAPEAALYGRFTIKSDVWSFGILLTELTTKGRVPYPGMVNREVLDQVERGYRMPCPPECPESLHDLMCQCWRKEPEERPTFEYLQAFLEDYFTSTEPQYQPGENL
Casein kinase I isoform alpha-like (Homo sapiens), sequence (Q8N752 whole entry, canonical isoform): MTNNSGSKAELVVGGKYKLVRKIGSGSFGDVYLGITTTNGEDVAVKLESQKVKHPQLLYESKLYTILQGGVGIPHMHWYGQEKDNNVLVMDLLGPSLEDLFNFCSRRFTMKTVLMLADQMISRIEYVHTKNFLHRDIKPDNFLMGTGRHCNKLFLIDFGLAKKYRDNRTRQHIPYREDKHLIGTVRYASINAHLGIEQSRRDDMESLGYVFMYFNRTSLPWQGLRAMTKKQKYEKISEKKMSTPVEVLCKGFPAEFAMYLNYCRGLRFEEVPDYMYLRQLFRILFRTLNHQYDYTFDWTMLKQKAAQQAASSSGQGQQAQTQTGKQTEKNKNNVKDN
Ribosomal protein S6 kinase alpha-1 (Homo sapiens), sequence (Q15418 whole entry): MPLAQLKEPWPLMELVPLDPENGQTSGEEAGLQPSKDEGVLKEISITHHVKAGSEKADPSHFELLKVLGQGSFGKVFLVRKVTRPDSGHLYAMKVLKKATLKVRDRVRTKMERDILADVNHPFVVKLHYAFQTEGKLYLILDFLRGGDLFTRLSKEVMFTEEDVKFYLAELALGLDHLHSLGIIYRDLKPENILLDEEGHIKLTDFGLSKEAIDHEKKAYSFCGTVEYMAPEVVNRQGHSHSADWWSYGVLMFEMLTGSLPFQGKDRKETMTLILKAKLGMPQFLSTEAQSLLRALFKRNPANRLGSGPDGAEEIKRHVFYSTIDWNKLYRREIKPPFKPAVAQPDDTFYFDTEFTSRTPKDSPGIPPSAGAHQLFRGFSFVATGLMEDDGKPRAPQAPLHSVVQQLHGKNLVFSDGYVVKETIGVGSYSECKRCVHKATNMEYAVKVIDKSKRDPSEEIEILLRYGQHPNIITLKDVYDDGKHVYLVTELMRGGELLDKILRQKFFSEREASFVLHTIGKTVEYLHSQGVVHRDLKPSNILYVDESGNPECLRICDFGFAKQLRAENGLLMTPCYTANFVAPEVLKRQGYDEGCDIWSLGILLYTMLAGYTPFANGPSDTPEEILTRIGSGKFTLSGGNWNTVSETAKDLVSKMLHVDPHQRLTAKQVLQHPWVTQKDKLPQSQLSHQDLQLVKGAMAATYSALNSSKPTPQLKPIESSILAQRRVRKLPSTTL

O=C(NCc1ncc(C(F)(F)F)cc1Cl)c1ccc2c(c1)C1(CCS(=O)(=O)CC1)[C@H](C1CC1)N2S(=O)(=O)c1ccc(F)cc1 [BAY-784]
inactive: residual activity [1] 86% | residual activity [2] 79% | residual activity [3] 100% | residual activity [4] 100% | residual activity [5] 100% | residual activity [6] 100% | residual activity [7] 100% | residual activity [8] 72% | inhibition [9] 14.6% | residual activity [10] 100% | residual activity [11] 100% | residual activity [12] 100% | inhibition [13] -5.62% | residual activity [14] 82% | residual activity [15] 95% | residual activity [16] 100% | residual activity [17] 86% | residual activity [18] 100% | residual activity [19] 100% | residual activity [20] 56% | residual activity [21] 100% | residual activity [22] 69% | residual activity [23] 100% | residual activity [24] 94% | residual activity [25] 90% | residual activity [26] 92% | inhibition [27] 1.44% | residual activity [28] 98% | residual activity [29] 90% | residual activity [30] 100% | residual activity [31] 96% | residual activity [32] 100%

O=C(NCc1ncc(C(F)(F)F)cc1Cl)c1ccc2c(c1)C1(CCS(=O)(=O)CC1)[C@@H](C1CC1)N2S(=O)(=O)c1ccc(F)cc1 [BAY-786]
inactive: residual activity [1] 70% | residual activity [2] 93% | residual activity [3] 93% | residual activity [4] 100% | residual activity [5] 100% | residual activity [6] 77% | residual activity [7] 100% | residual activity [8] 79% | inhibition [9] 16.5% | residual activity [10] 100% | residual activity [11] 100% | residual activity [12] 100% | inhibition [13] 6.57% | residual activity [14] 77% | residual activity [15] 100% | residual activity [16] 89% | residual activity [17] 98% | residual activity [18] 100% | residual activity [19] 100% | residual activity [20] 80% | residual activity [21] 100% | residual activity [22] 90% | residual activity [23] 100% | residual activity [24] 100% | residual activity [25] 89% | residual activity [26] 86% | inhibition [27] -1.68% | residual activity [28] 98% | residual activity [29] 84% | residual activity [30] 71% | residual activity [31] 100% | residual activity [32] 79%
